Data published in patent publication US10450258B2, “Substituted aromatic compounds for the treatment of pulmonary fibrosis, liver fibrosis, skin fibrosis and cardiac fibrosis” (PROMETIC PHARMA SMT LIMITED, priority 2013, dated 2019).
Entries after “also recorded” stand apart in the source; their conditions may differ.

What was measured:
[1] = test system: bleomycin-induced pulmonary fibrosis mouse model; test: Bleomycin-induced pulmonary fibrosis mouse model: body weight and lung histology; format: in vivo, mouse (male C57BL6)
Description: Intratracheal instillation of the anticancer drug bleomycin into the mouse results in acute inflammation followed by a chronic fibrotic response. Therefore, evaluation of candidate antifibrotic drugs such as Compound I can be undertaken by treatment of the mice at appropriate time points and histologic, biochemical and cellular readouts may be used to monitor candidate drug efficacy in this model.
Male C57BL6 mice are administered intratracheal instillation of bleomycin sulphate (0.025 U) at day 0, randomized and administered Compound I (oral administration, 100 mg/kg and 200 mg/kg) on day 7 to day 20.
Lesions score was evaluated using HEP (Hemalun with Eosin/Ploxine) and Masson's trichrome staining. Lesions score was recorded as 1) Consolidation as shown by disrupted lung architecture (cellular and/or fibrosis) and 2) Alveolar wall as shown by thickness and shrinking outside of consolidated area.
It was therefore evaluated side-by-side with Compound I in the bleomycin-induced pulmonary fibrosis mouse model by the same protocol described in Example 4 above. Compound I (200 mg/kg) and pirfenidone (400 mg/kg) were orally administered either alone or in combination.
Lesions score was evaluated using HEP (Hemalun with Eosin/Ploxine) and Masson's trichrome staining and recorded as 1) Consolidation as shown by disrupted lung architecture (cellular and/or fibrosis), and 2) Alveolar wall as shown by thickness and shrinking outside of consolidated area.
The lesions score as determined by the percentage of leukocyte infiltration (inflammatory zone) multiplied by the percentage of collagen found in the leukocyte infiltrate was quantified by histomorphometry using Masson's trichrome staining.
Visual grading of pulmonary fibrosis was also determined according to Ashcroft's score. Briefly, the entire fields of each lung section were read by a blinded examiner, and each field was visually graded from 0 to 8. Criteria for grading lung fibrosis were as follows: Grade 0=normal lung; Grade 1=minimal fibrous thickening of alveolar or bronchiolar walls; Grade 3=moderate thickening of walls without obvious damage to lung architecture; Grade 5=increased fibrosis with definitive damage to lung structure and formation of fibrous bands or small fibrous masses; Grade 7=severe distortion of structure and large fibrous area; Grade 8=total fibrous obliteration of lung fields.

[2] = test system: collagen 1 mRNA in NHDF cells; test: Inhibition of collagen mRNA in TGF-β-activated NHDF fibroblasts; format: cell-based; details: Homo sapiens, compound 0.5 mM
Description: CTGF, collagen 1 and α-SMA are fibrotic markers produced by activated fibroblasts and by epithelial cells that undergo to epithelial-mesenchymal transition (EMT).
Table 2: Percentage of inhibition of collagen in epithelial cells (HK2 cells) and fibroblasts (NHDF) and percentage of inhibition of α-SMA in fibroblasts (NRK-49F and NHDF) has been determined for several compounds according the invention. In all cases, the mRNA of collagen and α-SMA has been measured, and the inhibition was evaluated in presence of a respective concentration of the tested compound. The compounds have been tested at different concentrations [mM]. All compounds reduce the expression of collagen and α-SMA in HK-2, NHDF and NRK-49F cells.

[3] = test system: heart fibrosis in 5/6 nephrectomized-catheterized rats; test: Heart fibrosis in 5/6 nephrectomized-catheterized (5/6-Nx) rats; format: in vivo, rat (male Sprague-Dawley); details: for hydroxyproline (collagen) content in heart: FIG. 31
Description: Implantation of a femoral catheter increases the presence of heart fibrosis in our 5/6 nephrectomized (5/6-Nx) model and it was used to assess the effect of Compound I on heart fibrosis. In summary, male 6-week old Sprague-Dawley rats were subjected to 5/6-Nx or sham operations. Briefly, two-thirds of the left kidney was removed on day 0 followed by the right total nephrectomy on day 7. A catheter was implanted via the femoral vein on day 7. Sham operated rats underwent exposition of the kidneys and removal of the perirenal fat and were used as controls. Animals that underwent the sham operation were treated with vehicle (water) and were used as controls. On day 21, rats were randomized based on their glomerular filtration rate (GFR) results. 5/6-Nx animals were treated with three times a week intravenous administration of Compound I (10 mg/kg), or with daily oral administration with Compound I (200 mg/kg). Heart fibrosis was determined by the measurement of hydroxyproline (collagen content) and by histological evaluation (HPE and Masson's trichrome staining). As mentioned, implantation of catheter for intravenous administration of compounds in catheterized 5/6 nephrectomized animals is inducing heart fibrosis compare to oral treatment (no catheter). Oral treatment is identified herein with the expression “po” that means “per os”; intravenous administration is identified with the expression “iv” for “intravenous”. As exemplified in FIG. 27, 5/6-Nx rats have weak heart lesions. However, implantation of a catheter induced a significant increase (4 times) of heart lesions (fibrosis, necrosis and inflammation).

## CCCCCc1cccc(CC(=O)[O-])c1.[Na+] [Compound I, Sodium Salt of 3-pentylphenylacetic acid]
[1]; oral 200 mg/kg, day 7 to day 20, FIG. 1
  body weight loss: reduced this body weight loss
[1]; oral 100 and 200 mg/kg vs vehicle (Bleo), FIG. 1 legend
  recovery of the body weight loss: recovery of the body weight loss
[1]; oral 100 and 200 mg/kg, day 7 to day 20, FIG. 2
  histological lesions score of lungs (HEP and Masson's trichrome): significant reduction of lesions; also recorded: reduced histological lesions in a dose-dependent manner
[1]; oral 100 and 200 mg/kg, FIG. 3
  lesions and fibrosis in lungs (photomicrographs): reduced lesions and fibrosis in lungs
[1]; oral Compound I 200 mg/kg, FIG. 9
  lesions score: percentage of leukocyte infiltration multiplied by percentage of collagen in the leukocyte infiltrate (histomorphometry, Masson's trichrome): significantly reduced
[1]; oral, Compound I 200 mg/kg, pirfenidone 400 mg/kg, alone or combined, FIG. 7
  percentage of lungs affected by bleomycin: lower
[1]; oral, Compound I 200 mg/kg, pirfenidone 400 mg/kg, alone or combined, FIG. 8
  histological lesion score of lungs (HEP and Masson's trichrome): significantly reduced histological lesions
[1]; oral, Compound I 200 mg/kg, pirfenidone 400 mg/kg, alone or combined, FIG. 11
  visual grading of pulmonary fibrosis (Ashcroft's score): reduced
[1]; oral, Compound I 200 mg/kg, pirfenidone 400 mg/kg, FIG. 10
  lesions and fibrosis in lungs (photomicrographs stained with HEP): reduced lesions and fibrosis in lungs
[2]
  inhibition at 500 µM: 65%
[3]; intravenous 10 mg/kg three times a week, FIG. 29
  inflammation level in heart: significant reduction of inflammation
[3]; intravenous 10 mg/kg three times a week, FIG. 30
  necrosis level in heart: significant reduction of necrosis
[3]; intravenous 10 mg/kg three times a week
  hydroxyproline (collagen) content in heart: significant reduction
[3]; intravenous 10 mg/kg three times a week, p<0.05, FIG. 28
  total heart lesions (histological evaluation): reduces significantly
[3]; intravenous, FIG. 34
  heart fibrosis (blue-colored collagen deposition, Masson's trichrome photomicrographs): reduces fibrosis
[3]; oral 200 mg/kg daily
  hydroxyproline (collagen) content in heart: significant reduction
[3]; oral, FIGS. 32 and 33
  heart fibrosis (blue-colored collagen deposition, Masson's trichrome photomicrographs): reduces fibrosis
